Reference: US4870060A, “Derivatives of γ-cylodextrin” (Janssen Pharmaceutica, priority 1988, dated 1989)
Values after ≈ are worked out from the molar mass of the structure shown.

Columns and labels:
[1] = content of 3-chloro-6-[3,6-dihydro-4-(3-methylphenyl)-1(2H)-pyridinyl]pyridazine in solutions of γ-CD derivatives (procedure of example 4); format: physicochemical
Procedure: (§1) Starting from a 5% stock solution of a particular γ-CD derivative in a phosphate buffer of pH 7.4, a dilution series was obtained with concentrations varying of from 0% to 5% with 0.5% steps. 3 ml of these solutions were pipetted into a closed container containing an appropriate amount of progesteron. After 5 days shaking at 25° C., the thus obtained mixture was filtered over a membrane filter (pore diameter: 0.22 μm), and the content of progesteron was determined with high pressure liquid chromatography (using a column of 25 cm length; 5 mm internal diameter; packed with 5 μm ODS-hypersil (RP-18); eluent: acetonitrile/water; U.V. detection). The results of these concentration measurements for a number of the γ-CD derivatives of the present invention and for unsubstituted γ-CD gathered in the following table.
Following the procedures described in example 4 the content of 3-chloro-6-[3,6-dihydro-4-(3-methylphenyl)-1(2H)-pyridinyl]pyridazine was determined in solutions containing various concentrations of γ-CD derivatives. Said pyridazine compound is described in Published Europ. Pat. Appl. No. 0,156,433 as a useful anti-viral agent.

[2] = content of progesteron dissolved in solutions of γ-CD derivatives (phosphate buffer pH 7.4, 5 days shaking at 25° C., HPLC); format: physicochemical; conditions: phosphate buffer pH 7.4, 25° C.
Procedure: as §1

[3] = cited from earlier work
[4] = 1% γ-CD or derivative (weight by volume)
[5] = 2.5% γ-CD or derivative (weight by volume)
[6] = 5% γ-CD or derivative (weight by volume)

Question: With Cc1cccc(C2=CCN(c3ccc(Cl)nn3)CC2)c1 [3-chloro-6-[3,6-dihydro-4-(3-methylphenyl)-1(2H)-pyridinyl]pyridazine] as the compound, how does the solubility thermodynamic at 120 h ([1]; phosphate buffer ph 7.4, pH 7.4, aqueous buffer, 0% γ-CD derivative (weight by volume)) read?
Answer: The solubility thermodynamic at 120 h was 0.4 µg/mL (≈ 1.4 µM).

Question: Which solubility thermodynamic at 120 h ([2]; aqueous buffer, 0% γ-CD derivative (weight by volume)) does the source give for CC(=O)[C@H]1CC[C@H]2[C@@H]3CCC4=CC(=O)CC[C@]4(C)[C@H]3CC[C@]12C [progesteron] here?
Answer: Its solubility thermodynamic at 120 h is 5.9 µg/mL (≈ 18.8 µM).

Question: Which results are given for OC[C@H]1O[C@@H]2O[C@H]3[C@H](O)[C@@H](O)[C@@H](O[C@H]4[C@H](O)[C@@H](O)[C@@H](O[C@H]5[C@H](O)[C@@H](O)[C@@H](O[C@H]6[C@H](O)[C@@H](O)[C@@H](O[C@H]7[C@H](O)[C@@H](O)[C@@H](O[C@H]8[C@H](O)[C@@H](O)[C@@H](O[C@H]9[C@H](O)[C@@H](O)[C@@H](O[C@H]1[C@H](O)[C@H]2O)O[C@@H]9CO)O[C@@H]8CO)O[C@@H]7CO)O[C@@H]6CO)O[C@@H]5CO)O[C@@H]4CO)O[C@@H]3CO [unsubstituted γ-CD, γ-cyclodextrin]?
Answer: water solubility [3]: excellent water solubility; content of 3-chloro-6-[3,6-dihydro-4-(3-methylphenyl)-1(2H)-pyridinyl]pyridazine [1, 4]: 2.0 µg/mL; content of 3-chloro-6-[3,6-dihydro-4-(3-methylphenyl)-1(2H)-pyridinyl]pyridazine [1, 5]: 0.8 µg/mL; content of 3-chloro-6-[3,6-dihydro-4-(3-methylphenyl)-1(2H)-pyridinyl]pyridazine [1, 6]: 0.8 µg/mL; content of progesteron ([2]; 0.5% γ-CD or derivative (weight by volume)): 425 µg/mL; content of progesteron [2, 4]: 343 µg/mL; content of progesteron ([2]; 1.5% γ-CD or derivative (weight by volume)): 275 µg/mL; content of progesteron ([2]; 2% γ-CD or derivative (weight by volume)): 203 µg/mL; content of progesteron [2, 5]: 163 µg/mL; content of progesteron ([2]; 3% γ-CD or derivative (weight by volume)): 93 µg/mL; content of progesteron ([2]; 3.5% γ-CD or derivative (weight by volume)): 60 µg/mL; content of progesteron ([2]; 4% γ-CD or derivative (weight by volume)): 54 µg/mL; content of progesteron ([2]; 4.5% γ-CD or derivative (weight by volume)): 46 µg/mL; content of progesteron [2, 6]: 45 µg/mL
